For data set [1] the following is noted: in words; cited from earlier work.
Data set [2] concerns wild-type HIV-1. The arrangement: method as in PMID 21344906. As to conditions: cited from earlier work.
For data set [3] the following is noted: clinical trial, early 1970s; cited from earlier work.

One may read the melting point as the temperature of the solid-liquid transition. In the case of `CC[C@@]1(O)C(=O)OCc2c1cc1n(c2=O)Cc2c-1nc1ccc(N3CCOCC3)cc1c2C` [P211, 7-Methyl-10-morpholino-20(S)-camptothecin], the melting point was 283 to 285 °C.
For `CC[C@@]1(O)C(=O)OCc2c1cc1n(c2=O)Cc2cc3ccccc3nc2-1` [CPT, Camptothecin], the water solubility result in data set [1] is “negligible water solubility”.
The EC50 is the midpoint of the concentration-response curve. In the case of `Cc1cc(/C=C/C#N)cc(C)c1Nc1ccnc(Nc2ccc(C#N)cc2)n1` [rilpivirine], the EC50 in data set [2] is 0.67 nM.
As to `CC[C@@]1(O)C(=O)OCc2c1cc1n(c2=O)Cc2c-1nc1ccc(C3CCCCC3)cc1c2C` [P210, 10-Cyclohexyl-7-methyl-20(S)-camptothecin], the melting point lay in the range of 243 to 245 °C.
Consider `CC[C@@](O)(C(=O)[O-])c1cc2n(c(=O)c1CO)Cc1cc3ccccc3nc1-2.[Na+]` [compound 15], for which, in data set [3], the efficacy result is on record as “low efficacy”; the side effects entry was “unpredictable and severe side effects, including hemorrhagic cystitis and myelotoxicity”.

(Values after paper PMC6320962, “Synthesis, Experimental and Density Functional Theory (DFT) Studies on Solubility of Camptothecin Derivatives” (Molecules, 2018).)
